Laboratory results from the supplement of paper PMC10307832.

How the values were obtained:
Experiment in all cases: relative viability (nuclei count vs DMSO), 5 days (fraction); higher = more cells survive
NCI-H2126 = test system: NCI-H2126
Outline: (§1)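 Lung cancer cell lines were seeded in 1536-well plates and dosed by pin tool the next day, with either a single drug or a fixed anchor-drug dose combined with five library-drug doses (not always all listed) spaced in √10 steps. Five days later, one step fixed the cells and stained their nuclei (final 0.05% Triton X-100, 1% formaldehyde, 1 ug/ml Hoechst), and nuclei were counted on 4× images. Relative viability is the nuclei count in treated wells divided by the count in vehicle wells, and each value is the median of duplicate plates.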

NCI-H1793 = test system: NCI-H1793
Outline: as §1

EPLC-272H = test system: EPLC-272H
Outline: as §1

EKVX = test system: EKVX
Outline: as §1

NCI-H1650 = test system: NCI-H1650
Outline: as §1

NCI-H322M = test system: NCI-H322M
Outline: as §1

SK-LU-1 = test system: SK-LU-1
Outline: as §1

EMC-BAC-2 = test system: EMC-BAC-2
Outline: as §1

NCI-H1651 = test system: NCI-H1651
Outline: as §1

LCLC-103H = test system: LCLC-103H
Outline: as §1

NCI-H2087 = test system: NCI-H2087
Outline: as §1

SW 1573 = test system: SW 1573
Outline: as §1

A-427 = test system: A-427
Outline: as §1

201T = test system: 201T
Outline: as §1

NCI-H596 = test system: NCI-H596
Outline: as §1

COR-L23 = test system: COR-L23
Outline: as §1

UMC-11 = test system: UMC-11
Outline: as §1

NCI-H2023 = test system: NCI-H2023
Outline: as §1

NCI-H358 = test system: NCI-H358
Outline: as §1

NCI-H3122 = test system: NCI-H3122
Outline: as §1

BEN = test system: BEN
Outline: as §1

LXF-289 = test system: LXF-289
Outline: as §1

C=C1C(=O)O[C@@H](CCCCCCCC)[C@@H]1C(=O)O [C-75] + Cc1nc(Nc2ncc(C(=O)Nc3c(C)cccc3Cl)s2)cc(N2CCN(CCO)CC2)n1 [Dasatinib] (partner 0.075 µM)
relative viability (NCI-H2126; first compound 0.08 µM): 0.665
relative viability (NCI-H2126; first compound 0.253 µM): 0.657
relative viability (NCI-H2126; first compound 0.8 µM): 0.576
relative viability (NCI-H2126; first compound 2.53 µM): 0.448
relative viability (NCI-H2126; first compound 8 µM): 0.586
relative viability (NCI-H1793; first compound 0.08 µM): 0.399
relative viability (NCI-H1793; first compound 0.253 µM): 0.373
relative viability (NCI-H1793; first compound 0.8 µM): 0.32
relative viability (NCI-H1793; first compound 2.53 µM): 0.352
relative viability (NCI-H1793; first compound 8 µM): 0.373
relative viability (EPLC-272H; first compound 0.08 µM): 0.412
relative viability (EPLC-272H; first compound 0.253 µM): 0.292
relative viability (EPLC-272H; first compound 0.8 µM): 0.351
relative viability (EPLC-272H; first compound 2.53 µM): 0.33
relative viability (EPLC-272H; first compound 8 µM): 0.381
relative viability (EKVX; first compound 0.08 µM): 0.535
relative viability (EKVX; first compound 0.253 µM): 0.584
relative viability (EKVX; first compound 0.8 µM): 0.564
relative viability (EKVX; first compound 8 µM): 0.481
relative viability (NCI-H1650; first compound 0.08 µM): 0.334
relative viability (NCI-H1650; first compound 0.253 µM): 0.359
relative viability (NCI-H1650; first compound 2.53 µM): 0.31
relative viability (NCI-H1650; first compound 8 µM): 0.305
relative viability (NCI-H322M; first compound 0.08 µM): 0.241
relative viability (NCI-H322M; first compound 0.253 µM): 0.244
relative viability (NCI-H322M; first compound 0.8 µM): 0.272
relative viability (NCI-H322M; first compound 2.53 µM): 0.198
relative viability (NCI-H322M; first compound 8 µM): 0.313
relative viability (SK-LU-1; first compound 0.08 µM): 0.168
relative viability (SK-LU-1; first compound 0.253 µM): 0.175
relative viability (SK-LU-1; first compound 0.8 µM): 0.166
relative viability (SK-LU-1; first compound 2.53 µM): 0.127
relative viability (SK-LU-1; first compound 8 µM): 0.172
relative viability (EMC-BAC-2; first compound 0.08 µM): 0.37
relative viability (EMC-BAC-2; first compound 0.253 µM): 0.313
relative viability (EMC-BAC-2; first compound 0.8 µM): 0.283
relative viability (EMC-BAC-2; first compound 2.53 µM): 0.261
relative viability (EMC-BAC-2; first compound 8 µM): 0.276
relative viability (NCI-H1651; first compound 0.08 µM): 0.484
relative viability (NCI-H1651; first compound 0.253 µM): 0.339
relative viability (NCI-H1651; first compound 0.8 µM): 0.364
relative viability (NCI-H1651; first compound 2.53 µM): 0.362
relative viability (NCI-H1651; first compound 8 µM): 0.413
relative viability (LCLC-103H; first compound 0.08 µM): 0.445
relative viability (LCLC-103H; first compound 0.253 µM): 0.451
relative viability (LCLC-103H; first compound 0.8 µM): 0.511
relative viability (LCLC-103H; first compound 2.53 µM): 0.351
relative viability (LCLC-103H; first compound 8 µM): 0.524
relative viability (NCI-H2087; first compound 0.08 µM): 0.88
relative viability (NCI-H2087; first compound 0.253 µM): 1.06
relative viability (NCI-H2087; first compound 0.8 µM): 0.66
relative viability (NCI-H2087; first compound 2.53 µM): 0.829
relative viability (NCI-H2087; first compound 8 µM): 0.865
relative viability (SW 1573; first compound 0.08 µM): 0.632
relative viability (SW 1573; first compound 0.253 µM): 0.476
relative viability (SW 1573; first compound 0.8 µM): 0.291
relative viability (SW 1573; first compound 2.53 µM): 0.46
relative viability (SW 1573; first compound 8 µM): 0.295
relative viability (A-427; first compound 0.08 µM): 0.689
relative viability (A-427; first compound 0.253 µM): 0.661
relative viability (A-427; first compound 0.8 µM): 0.645
relative viability (A-427; first compound 2.53 µM): 0.605
relative viability (A-427; first compound 8 µM): 0.658
relative viability (201T; first compound 0.08 µM): 0.612
relative viability (201T; first compound 0.253 µM): 0.707
relative viability (201T; first compound 0.8 µM): 0.568
relative viability (201T; first compound 2.53 µM): 0.511
relative viability (201T; first compound 8 µM): 0.56
relative viability (NCI-H596; first compound 0.08 µM): 0.764
relative viability (NCI-H596; first compound 0.253 µM): 0.669
relative viability (NCI-H596; first compound 0.8 µM): 0.6
relative viability (NCI-H596; first compound 2.53 µM): 0.446
relative viability (NCI-H596; first compound 8 µM): 0.616
relative viability (COR-L23; first compound 0.08 µM): 0.518
relative viability (COR-L23; first compound 0.253 µM): 0.532
relative viability (COR-L23; first compound 0.8 µM): 0.489
relative viability (COR-L23; first compound 2.53 µM): 0.328
relative viability (COR-L23; first compound 8 µM): 0.48
relative viability (UMC-11; first compound 0.08 µM): 0.43
relative viability (UMC-11; first compound 0.253 µM): 0.547
relative viability (UMC-11; first compound 0.8 µM): 0.389
relative viability (UMC-11; first compound 2.53 µM): 0.433
relative viability (UMC-11; first compound 8 µM): 0.376
relative viability (NCI-H2023; first compound 0.08 µM): 0.639
relative viability (NCI-H2023; first compound 0.253 µM): 0.471
relative viability (NCI-H2023; first compound 0.8 µM): 0.458
relative viability (NCI-H2023; first compound 2.53 µM): 0.425
relative viability (NCI-H2023; first compound 8 µM): 0.472
relative viability (NCI-H358; first compound 0.08 µM): 0.181
relative viability (NCI-H358; first compound 0.253 µM): 0.13
relative viability (NCI-H358; first compound 0.8 µM): 0.157
relative viability (NCI-H358; first compound 2.53 µM): 0.151
relative viability (NCI-H358; first compound 8 µM): 0.143
relative viability (NCI-H3122; first compound 0.08 µM): 0.832
relative viability (NCI-H3122; first compound 0.253 µM): 0.798
relative viability (NCI-H3122; first compound 0.8 µM): 0.583
relative viability (NCI-H3122; first compound 2.53 µM): 0.594
relative viability (NCI-H3122; first compound 8 µM): 0.742
relative viability (BEN; first compound 0.08 µM): 0.317
relative viability (BEN; first compound 0.253 µM): 0.271
relative viability (BEN; first compound 0.8 µM): 0.326
relative viability (BEN; first compound 8 µM): 0.288
relative viability (LXF-289; first compound 0.08 µM): 0.22
relative viability (LXF-289; first compound 0.253 µM): 0.137
relative viability (LXF-289; first compound 0.8 µM): 0.26
relative viability (LXF-289; first compound 2.53 µM): 0.163
relative viability (LXF-289; first compound 8 µM): 0.22
